Laboratory results taken from US4737362A, “Hair treatment composition” (Suntory Limited, priority 1983, dated 1988).

Molecular target: testosterone 5α-reductase
Test: 5α-reductase inhibitory activity (conversion of radiolabelled testosterone to 5α-dihydrotestosterone, microsomal enzyme specimen)
Assay type: biochemical, rats
Details: rat prostate microsomes; pH 6.6; 25° C.; 60 minutes; 8.5 pmol labelled testosterone
Protocol: The 5α-reductase inhibitory activity was determined as follows.
Prostate gland cells of rats were crushed and a specimen of testosterone 5α-reductase was then prepared by separating microsome from the crushed liquid mixture. The conversion of the testosterone to 5α-dihydrotestosterone by the use of the above-prepared enzyme specimen was monitored by radioisotopically labelled testosterone. The reaction mixture was extracted with ethyl acetate and the extract was developed twice by silica gel thin layer chromatography (solvent system, dichloromethane:cyclohexane:acetone=15:4:1). The amount of 5α-dihydrotestosterone was determined from the intensities of the radioactivity.
A 30 μl amount of a 0.05 M phosphate buffer (pH=6.6), 10 μl of an enzyme specimen, 8.5 pmol of labelled testosterone, 50 nmol of a reduced form of NADP (nicotinamide adenine dinucleotide phosphate), and 10 μl of a test sample were mixed (final volume […]). The mixture was incubated at a temperature of 25° C. for 60 minutes.
The reaction was stopped by the addition of 100 μl of ethyl acetate, and the reaction mixture was extracted by vigorous shaking. The extract was developed in the same manner as mentioned above, and the intensity of the radioisotope was measured by using a scintillation counter.
The above-mentioned determination was applied to samples having various concentrations. […]

Row | SMILES | IC50 [µM]
1 | CC/C=C\C/C=C\C/C=C\CCCCCCCC(=O)O [Linolenic acid] | 1600
2 | CCCCCCCCCCCCCCCCCC(=O)O [Stearic acid] | 1300
